The values below come from PubChem BioAssay (NCI).

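In this assay, cells in 96-well plates receive the compound at five concentrations for 48 hours. Endpoints are linearly interpolated between the surrounding concentrations. TGI is the concentration that stops growth completely.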 Where a SMILES comes first, the peptide text is derived from it. The star is where a group is joined. Fmoc = O=C(OCC1c2ccccc2-c2ccccc21)*; Boc = CC(C)(C)OC(=O)*

Holding throughout (assay): DTP human tumour cell line panel, 48 h
For experiment [1], the system named is OVCAR-8 ovarian.
For experiment [2], the system named is HL-60(TB) leukemia.
Experiment [3] concerns T-47D breast.
The test system of experiment [4] is RPMI-8226 leukemia.
Experiment [5] deals with MDA-MB-435.
Experiment [6] deals with SK-MEL-5 melanoma.
Experiment [7] deals with MDA-MB-231 breast.
In experiment [8] the test system is TK-10 renal.
Experiment [9] has as its system UO-31 renal.
The test system of experiment [10] is NCI-H522 lung.
The subject of experiment [11] is SN12C renal.
The subject of experiment [12] is SR leukemia.
The test system of experiment [13] is SK-MEL-28 melanoma.
Experiment [14] concerns BT-549 breast.
For experiment [15], the system named is ACHN renal.
For experiment [16], the system named is OVCAR-4 ovarian.
Experiment [17] has as its system A549 NSCLC.
The test system of experiment [18] is HOP-92 NSCLC.

Turning to `O=c1cc(-c2cccc(Br)c2)[nH]c2cc3c(cc12)OCO3`, the total growth inhibition concentration (TGI) in experiment [1] is 17.3 µM; in experiment [2], more than 100 µM; in experiment [3], 36.5 µM; in [4] it was more than 100 µM; in experiment [5], 3.02 µM; in experiment [6], 9.73 µM. Also, the TGI in [7] is 23.1 µM; in experiment [8], 28.6 µM; in [9], 37.9 µM; in [10], 18.3 µM; in experiment [11], more than 55.9 µM; in experiment [12], more than 100 µM. Also, the TGI in [13] is more than 100 µM; in experiment [14] it was 14.4 µM; in experiment [15] it was 24.4 µM; in experiment [16], more than 100 µM; in [17] it was 25.2 µM.

Consider `O=C1Cc2c([nH]c3cc(Br)ccc23)-c2ccccc2N1`, for which the TGI is 73.9 µM in experiment [1]; 88.3 µM in [18]; more than 100 µM in [2]; 84.1 µM in experiment [3]; more than 100 µM in experiment [5]; 38.9 µM in experiment [6]. Further, the TGI in [7] was more than 100 µM; in experiment [8] it was 87.3 µM; in [9], 38.1 µM; in experiment [10], 52.7 µM; in experiment [11] it was 76.4 µM; in experiment [12], more than 100 µM. The TGI in experiment [13] was more than 100 µM; in [14] it was 46.9 µM; in experiment [15] it was 64.7 µM; in experiment [16], 38.2 µM; in experiment [17] it was 64.1 µM.

In the case of `N=c1oc2ccc(Cl)cc2cc1C(=O)NC1CCCCC1`, the TGI in [1], in experiment [18], in experiment [2], in experiment [3], in experiment [4] and in experiment [5] was more than 100 µM in each case. The concentration for total growth inhibition (TGI) in experiment [6], in experiment [7], in experiment [11], in experiment [12], in [13] and in [14] was more than 100 µM throughout. Besides, the concentration for total growth inhibition (TGI) in experiment [15], in experiment [16] and in experiment [17] was more than 100 µM in each case.

Turning to `C1COCCOP2(N3CC3)=NP(N3CC3)(=NP(N3CC3)(N3CC3)=N2)OCCOCCO1` (configuration not stated), the concentration for total growth inhibition (TGI) in [1], in experiment [2], in [3], in experiment [4], in experiment [5] and in experiment [6] was more than 100 µM throughout. For the same molecule, the TGI in experiment [7], in experiment [8], in experiment [9], in experiment [10], in [11] and in [12] was more than 100 µM throughout. Moreover, the TGI in experiment [14], in [15], in experiment [16] and in experiment [17] was more than 100 µM throughout.

As to `COc1cc(C2SC(N)=Nc3c2c(C)nn3C(=O)c2ccc(Cl)cc2)ccc1O` (configuration not stated), the TGI in experiment [1], in experiment [18], in [2], in [3], in experiment [4] and in experiment [5] was more than 10 µM in each case. In addition, the TGI in experiment [6], in experiment [7], in [8], in experiment [10], in experiment [11] and in experiment [12] was more than 10 µM throughout. Further, the TGI in [13], in experiment [14], in experiment [15], in experiment [16] and in [17] was more than 10 µM throughout.

`NC(=O)N/N=C/c1ccccc1O`: the TGI in experiment [1], in experiment [18], in experiment [2], in [3], in experiment [4] and in experiment [5] was more than 100 µM throughout. The TGI in experiment [6], in [7], in experiment [8], in experiment [9], in [12] and in [13] was more than 100 µM in each case. Moreover, the TGI in experiment [14], in experiment [15] and in experiment [16] was more than 100 µM throughout.

As to `CC(C)(C)OC(=O)NCCCCC(NC(=O)C(Cc1c[nH]c2ccccc12)NC(=O)OCC1c2ccccc2-c2ccccc21)C(=O)O` (configuration not stated) (Fmoc-Trp-Lys(Boc)-OH; configuration not given here), the TGI is more than 100 µM in experiment [1]; 67 µM in experiment [18]; 34 µM in experiment [2]; more than 100 µM in experiment [3]; 67 µM in [4]; more than 100 µM in [5]. In addition, the total growth inhibition concentration (TGI) was more than 100 µM in experiment [6]; 67.9 µM in experiment [7]; more than 100 µM in experiment [8]; more than 100 µM in experiment [9]; more than 100 µM in experiment [11]; 59.3 µM in experiment [12]. For the same molecule, the TGI in experiment [13], in experiment [14], in experiment [15], in experiment [16] and in [17] was more than 100 µM in each case.

As to `Cn1c2c(c3c(=O)[nH]ncc31)CCCc1ccccc1-2`, the concentration for total growth inhibition (TGI) was 83.5 µM in experiment [1]; 41.3 µM in experiment [18]; 16.3 µM in experiment [2]; more than 100 µM in experiment [3]; 40.2 µM in [4]; 50.4 µM in experiment [5]. For the same molecule, the TGI is 30.5 µM in experiment [6]; more than 100 µM in [7]; more than 100 µM in [8]; 53.1 µM in [9]; 38.3 µM in [10]; 66.3 µM in experiment [11]. Further, the TGI is 51.8 µM in [12]; more than 100 µM in experiment [14]; 98.9 µM in experiment [15]; more than 100 µM in experiment [16]; more than 100 µM in experiment [17].

On to `CCO/N=C(/CC)c1ccc(Br)s1`, for which the TGI in experiment [1], in experiment [18], in [2], in experiment [3], in experiment [5] and in experiment [6] was more than 100 µM in each case. The concentration for total growth inhibition (TGI) in experiment [7], in experiment [8], in [9], in experiment [10], in experiment [11] and in experiment [12] was more than 100 µM throughout. Further, the TGI in experiment [13], in experiment [14], in experiment [15], in [16] and in experiment [17] was more than 100 µM each time.

For `COC(=O)/C=C/N1CC1`, the TGI in experiment [1], in [2], in experiment [3], in [4], in experiment [5] and in [6] was more than 10 µM in each case. The TGI in experiment [7], in [8], in experiment [10], in [11], in experiment [12] and in [13] was more than 10 µM throughout. The TGI in experiment [14], in experiment [15], in experiment [16] and in experiment [17] was more than 10 µM throughout.

As for `CC(C)C(=O)CP(=O)(O)O`, the TGI in experiment [1], in experiment [18], in [2], in experiment [3], in [4] and in experiment [5] was more than 100 µM each time. Besides, the total growth inhibition concentration (TGI) in experiment [6], in [7], in experiment [8], in [10], in experiment [11] and in experiment [12] was more than 100 µM each time. Further, the TGI in [13], in experiment [14], in experiment [15], in experiment [16] and in [17] was more than 100 µM each time.

For the molecule `CN1C(=O)C(O)C[C@@H]1c1ccc(F)cc1` (some centres not stated), the TGI in [18], in experiment [2], in [3], in [4], in experiment [5] and in experiment [6] was more than 100 µM throughout. The TGI in [7], in experiment [8], in experiment [9], in experiment [11], in experiment [12] and in [13] was more than 100 µM in each case. Moreover, the TGI in experiment [14], in [15], in experiment [16] and in experiment [17] was more than 100 µM throughout.

As to `CCOC(=O)c1c(CN2CCOCC2)n(Cc2ccccc2)c2c1cc(O)c1nc(C)c(C)nc12`, the total growth inhibition concentration (TGI) was 53.4 µM in experiment [1]; more than 100 µM in experiment [2]; more than 100 µM in [3]; more than 100 µM in [4]; more than 100 µM in [5]; 57.4 µM in experiment [6]. The TGI in [7] is more than 100 µM; in experiment [8], 97.7 µM; in experiment [9] it was more than 100 µM; in experiment [11] it was more than 100 µM; in [12] it was more than 100 µM; in [13] it was more than 100 µM. Further, the TGI is 34 µM in [14], more than 100 µM in [15], more than 100 µM in experiment [16] and more than 100 µM in experiment [17].

Consider `CC1OC(n2cnc3c(N)nc(Cl)nc32)C(C)(O)C1O` (configuration not stated), for which the concentration for total growth inhibition (TGI) in experiment [1], in experiment [18], in experiment [2], in [3], in [4] and in [5] was more than 25 µM in each case. The total growth inhibition concentration (TGI) in [6], in [7], in experiment [8], in experiment [9], in experiment [10] and in experiment [11] was more than 25 µM in each case. For the same molecule, the TGI in experiment [12], in [14], in experiment [15], in [16] and in experiment [17] was more than 25 µM in each case.

As to `O=C(O)CCCN=C(C(=NCCCC(=O)O)c1ccccc1)c1ccccc1`, the TGI in experiment [1], in [3], in experiment [4], in experiment [5], in experiment [7] and in experiment [8] was more than 100 µM each time. For the same molecule, the TGI in experiment [9], in [11], in experiment [12], in [13], in experiment [14] and in experiment [15] was more than 100 µM each time. The TGI in experiment [16] and in experiment [17] was more than 100 µM each time.

As for `CCCNC(=O)c1cc(NC(=O)c2cc(NC(=O)CCS(=O)(=O)OC)cn2C)cn1C`, the TGI is 30.3 µM in experiment [1]; 47 µM in experiment [18]; 42.1 µM in [3]; more than 100 µM in experiment [4]; 68.8 µM in experiment [5]; 44.1 µM in experiment [6]. Moreover, the concentration for total growth inhibition (TGI) is more than 70.8 µM in [7]; more than 100 µM in experiment [8]; more than 100 µM in experiment [9]; 6.07 µM in experiment [10]; 29.7 µM in experiment [11]; more than 100 µM in experiment [12]. The TGI in experiment [13] was more than 100 µM; in [14] it was 8.54 µM; in [15], more than 100 µM; in [16], more than 73.6 µM; in experiment [17] it was more than 100 µM.

Regarding `C=C(C)COC(=O)COCC(=O)OCC(=C)C`, the TGI in experiment [1], in [18], in [3], in experiment [4], in [5] and in experiment [6] was more than 100 µM in each case. Also, the TGI in experiment [7], in [8], in experiment [9], in experiment [11], in experiment [12] and in experiment [13] was more than 100 µM each time. Moreover, the TGI in [14], in experiment [15], in [16] and in experiment [17] was more than 100 µM throughout.

As a reminder, the TGI is the concentration giving total growth inhibition.
